Experimental data: patent publication EP0245669B1, “Pharmaceutical preparation for preventing damage to living cells by free radicals, or for increasing the efficacy of organic sulphur compounds, and process for increasing the life span of isolated organs” (Medopharm Arzneimittelwerk Dr. Zillich GmbH & Co., priority 1986, dated 1987)

Test system: weiblichen C3H Mäusen
Assay: Radiation protection: survival of mice after gamma irradiation (cobalt-60) following i.p. pretreatment
Assay type: in vivo, Mäuse
Details: for Ueberlebensrate nach Bestrahlung mit 10 Gy: 10 min before 10 Gy
Text: In den nachfolgenden Beispielen wurde die synergistische Wirkung der durch die erfindungsgemässe Verwendung hergestellten pharmazeutischen Präparate mit organische Schwefelverbindungen enthaltenden Präparaten anhand des Strahlenschutzes getestet und es wurde auch die Strahlenschutzwirkung der Zinkionen enthaltenden Präparate mit bisher bekannten Strahlenschutzpräparaten an Mäusen getestet. Die Versuche wurden mit weiblichen C3H Mäusen (GL. Bomholtgard, Ry, Dänemark) durchgeführt, die 20 bis 22 g wogen. Die Mäuse wurden unter Bedingungen gehalten, wo sie so viel Standard-Nagetierfutter (Nafag Pellts) fressen und so viel Leitungswasser trinken können, wie sie wollten. Die Bestrahlung erfolgte mit Gammastrahlen aus einer Kobalt-60 Quelle. Es wurden unterschiedliche Bestrahlungen vorgenommen, und zwar mit 9 Gy, 10 Gy, 11 Gy, 12 Gy, 13 Gy und 14 Gy.
10 Minuten vor der Bestrahlung, 30 Minuten vor der Bestrahlung oder 120 Minuten vor der Bestrahlung wurde ein durch die erfindungsgemässe Verwendung hergestelltes synergistisch wirkendes pharmazeutisches Präparat, bzw. ein entsprechendes, Zinkionen enthaltendes Strahlenschutzpräparat oder ein aus dem Stand der Technik bekanntes Strahlenschutzpräparat zu Vergleichszwecken durch intraperitoneale Injektion verabreicht.
Bei der Gruppe der Mäuse zu Vergleichszwecken, die ohne Verabreichung eines Strahlenschutzpräparates bestrahlt wurden, erfolgte 10 Minuten vor der Bestrahlung die Verabreichung von destilliertem Wasser. Bei diesen unbehandelten Mäusen überlebten nur 50% der Tiere eine Bestrahlung von 8 Gy, d.h. der LD₅₀-Wert betrug 8 Gy.
Nach den Arbeitsweisen der vorangegangenen Beispiele 1 bis 4, wurden weitere Tests mit den genannten weiblichen Mäusen durchgeführt, und zwar unter Verwendung der angeführten Zinksalze. Die bei diesen Tests erzielten Ergebnisse sind in der nachfolgenden Tabelle I zusammengestellt. Für jede der angewandten Bestrahlungsstärken ist in der Rubrik "Anzahl" diejenige Anzahl der Mäuse angeführt, welche die Bestrahlung überlebten, geteilt durch die Gesamtzahl der Mäuse, welche bestrahlt wurden. Ein entsprechender Wert von 1/10 bedeutet also, dass von 10 bestrahlten Mäusen eine überlebt hatte. In der Spalte mit der Bezeichnung "Prozent", ist die Prozent-Ueberlebensrate angeführt. Bei einer überlebenden Maus pro 10 getesteten Mäusen beträgt diese Ueberlebensrate 10 %.
Zu Vergleichszwecken sind in der nachfolgenden Tabelle III die Ueberlebensraten von Mäusen zusammengestellt, die nach dem in Beispiel 5 beschriebenen Verfahren einer Vorbehandlung mit einem bekannten schwefelhaltigen Strahlenschutzmittel unterworfen worden waren. Orientierende Vorversuche hatten gezeigt, dass diese Strahlenschutzmittel bereits ihre Wirkung verloren hatten, wenn sie zwei Stunden vor der Einwirkung der Bestrahlung verabreicht worden waren. Die Bestrahlung wurde, wie aus der Tabelle ersichtlich ist, zwei Minuten nach der Verabreichung, in den meisten Fällen 10 Minuten nach der Verabreichung, aber auch 30 Minuten, bzw. 120 Minuten nach der Verabreichung durchgeführt. Die Werte deuten darauf hin, dass 30 Minuten nach der Verabreichung die Schutzwirkung schon wieder deutlich nachgelassen hat. Für jede Bestrahlungsstärke ist wiederum die Anzahl der Tiere angeführt, die nach 30 Tagen überlebt haben, geteilt durch die Gesamtzahl der Tiere, die behandelt und bestrahlt worden waren.
Anhand dieses Beispiels soll die synergistische Wirkung von Zinkionen und Schwefelverbindungen bezüglich eines Strahlenschutzes erläutert werden. Es wurde wieder in der gleichen Weise gearbeitet, wie in den vorangegangenen Beispielen 1 bis 3, bzw. 5, und es wurde auch die gleiche Art an weiblichen Mäusen getestet. Die Verabreichung der Zinkionen enthaltenden Lösung und der Lösung der Schwefelverbindung erfolgte entweder nacheinander oder gleichzeitig durch intraperitoneale Injektion.
In allen Fällen wurde die Ueberlebensrate 30 Tage nach der Einwirkung der Bestrahlung bestimmt.

Question: For Kupferaspartat [reference compound], which Strahlenschutzwirkung (10 to 30 mg/kg body weight injected 10 min before 9 Gy, lethal dose already reached) is on record?
Answer: wirkungslos

Question: How did the “Synergismus mit Zinkionen (Strahlenschutz)” value (in combination with zinc ions and zinc complexes, procedure of Example 6) turn out when `COc1ccc(CCCCNCCSS(=O)(=O)O)cc1` [reference compound] was run?
Answer: die besten Ergebnisse

Question: What does the source list for `NCCS` [Cysteamin, β-Merkaptoäthylamin, reference compound]?
Answer: Ueberlebensrate nach Bestrahlung mit 10 Gy (75 mg/kg i.p., surviving after 30 days/irradiated mice): 0/10; Strahlenschutzwirkung (150 mg/kg body weight, 10 min before 11 Gy): keine Strahlenschutzwirkung; Ueberlebensrate nach Bestrahlung mit 9 Gy (150 mg/kg i.p., 10 min before 9 Gy, surviving after 30 days/irradiated mice): 10/10; Ueberlebensrate nach Bestrahlung mit 10 Gy (150 mg/kg i.p., surviving after 30 days/irradiated mice): 9/10; Ueberlebensrate nach Bestrahlung mit 11 Gy (150 mg/kg i.p., 10 min before 11 Gy, surviving after 30 days/irradiated mice): 0/10; Ueberlebensrate (225 mg/kg alone, injected 10 min before 13 Gy): 10%; Ueberlebensrate nach Bestrahlung mit 14 Gy (225 mg/kg i.p., 2 min before 14 Gy, surviving after 30 days/irradiated mice): 0/10; Ueberlebensrate nach Bestrahlung mit 10 Gy (225 mg/kg i.p., surviving after 30 days/irradiated mice): 10/10^+; Ueberlebensrate nach Bestrahlung mit 11 Gy (225 mg/kg i.p., 10 min before 11 Gy, surviving after 30 days/irradiated mice): 8/10^+; Ueberlebensrate nach Bestrahlung mit 12 Gy (225 mg/kg i.p., 10 min before 12 Gy, surviving after 30 days/irradiated mice): 6/10^+; Ueberlebensrate nach Bestrahlung mit 13 Gy (225 mg/kg i.p., 10 min before 13 Gy, surviving after 30 days/irradiated mice): 1/10^+; Ueberlebensrate nach Bestrahlung mit 14 Gy (225 mg/kg i.p., 10 min before 14 Gy, surviving after 30 days/irradiated mice): 0/10; Ueberlebensrate nach Bestrahlung mit 11 Gy (225 mg/kg i.p., 30 min before 11 Gy, surviving after 30 days/irradiated mice): 6/10; Ueberlebensrate nach Bestrahlung mit 12 Gy (225 mg/kg i.p., 30 min before 12 Gy, surviving after 30 days/irradiated mice): 1/10; Ueberlebensrate nach Bestrahlung mit 11 Gy (225 mg/kg i.p., 120 min before 11 Gy, surviving after 30 days/irradiated mice): 0/10; überlebten eine Bestrahlung mit 11 Gy (225 mg/kg, 10 min before 11 Gy, of 10 animals tested): 8; überlebten eine Bestrahlung mit 12 Gy (225 mg/kg, 10 min before 12 Gy, of 10 animals tested): 6; überlebten eine Bestrahlung mit 13 Gy (225 mg/kg, 10 min before 13 Gy, of 10 animals tested): 1; überlebten eine Bestrahlung mit 14 Gy (225 mg/kg, 10 min before 14 Gy, of 10 animals tested): keines; überlebten eine Bestrahlung mit 11 Gy (225 mg/kg, 30 min before 11 Gy, of 10 animals tested): 6 Tiere; überlebten eine Bestrahlung mit 12 Gy (225 mg/kg, 30 min before 12 Gy, of 10 animals tested): 1 Tier

Question: For `N[C@@H](CC(=O)O)C(=O)[O-].[Na+]` [Natriumaspartat, reference compound], which Strahlenschutzwirkung (20 to 350 mg/kg body weight injected 10 min before 9 Gy, lethal dose already reached) is on record?
Answer: wirkungslos
